Assay results taken from patent publication US20130288897A1, “SYNERGISTIC PESTICIDAL COMPOSITIONS” (Dow AgroSciences LLC, priority 2012, published 2013).
Values joined by “and” are separate entries in the source; they are usually repeats but may differ in a detail not shown here. Equal values may be shown once.

What was measured:
Type in all cases: in vivo
[1] = test system: cotton aphid (CA) Aphis gossypii; assay: Cotton aphid track-sprayer test on cotton: Compound A or imidacloprid with glufosinate (Liberty) and AMS (Example XVII); conditions: for Colby Predicted Values Ave: combination with glufosinate
Experimental: (§1) Glyphosate resistant cotton plants (Gossypium hirsutum, cv ‘DP493’) were trimmed to 1 true leaf and infested with mixed stages of cotton aphid (CA) Aphis gossypii 24 h prior to application. Mixed developmental stage CA were infested onto the upper surface of each treated leaf by transferring infested foliage from an insectary colony. Each plant was infested with approximately equal numbers of CA based on visual estimation of aphid density on the infested material. Infested plants were held in the growth chamber (L:D 16:8 and 25° C.). Glufosinate (Liberty®, Bayer CropScience, Monheim am Rhein, Germany) was mixed with water at a rate equivalent to 5 ml/L (0.4 qt/Ac). […] High rate Compound A concentrations were created by diluting Compound A technical material with acetone to achieve a 10 ppm solution. […] […] […] Nozzle height above the canopy was held constant at ca. 30 cm. Plants were evaluated after 3 days from the time of infestation by counting all live cotton aphids on each plant.
TABLE 6 contains the calculated Colby values for combinations of treatments as well as the outcome of statistical evaluations between predicted (Colby) and actual measured values. These T-test statistics were only calculated for the 0.2 and 0.05 g/Ha rates. […] These same trends were apparent when Compound A was applied with both glufosinate and AMS.

[2] = test system: cotton aphid (CA) Aphis gossypii; assay: Cotton aphid track-sprayer test on cotton: Compound A or imidacloprid with Durango (glyphosate) or Durango Blank and AMS (Example XVI); conditions: for % Control (Negatives to zero) Ave / % control Ave / Colbv predicted values Ave: average of 5 reps
Experimental: as §1, with “C.). Glyphosate (Durango®, Dow AgroSciences, LLC, Indianapolis, Ind.)” for “C.). Glufosinate (Liberty®, Bayer CropScience, Monheim am Rhein, Germany)”, “to 15” for “to 5”, “ml/L (1.2” for “ml/L (0.4”, “qt/Ac). […] A glyphosate free formulation of Durango® was prepared using these same mixing instructions.” for “qt/Ac).”
[…] Percent control for all treatments was calculated using the rep average for the untreated plants.

[3] = test system: cotton aphid (CA) Aphis gossypii; assay: Cotton aphid track-sprayer test on cotton: Compound A or imidacloprid with Glyphomax Plus (glyphosate) and AMS (Example XV)
Experimental: Glyphosate resistant cotton plants (Gossypium hirsutum, cv ‘DP493’) were trimmed to 1 true leaf and infested with mixed stages of cotton aphid (CA) Aphis gossypii 24 h prior to application. Mixed developmental stage CA were infested onto the upper surface of each treated leaf by transferring infested foliage from an insectary colony. Each plant was infested with approximately equal numbers of CA based on visual estimation of aphid density on the infested material. Infested plants were held in the growth chamber (L:D 16:8 and 25° C.). Glyphosate (Glyphomax Plus, Dow AgroSciences, LLC, Indianapolis, Ind.) was mixed with water at a rate equivalent to 32 oz/Ac/20 gallons. […] High rate Compound A concentrations were created by diluting Compound A technical material with acetone to achieve a 10 ppm solution. […] When applied through a track sprayer calibrated to 200 L/Ha these concentrations generated use rates of 0.2, 0.04 and 0.008 g/Ha. […] Nozzle height above the canopy was held constant at ca. 30 cm. Plants were evaluated after 3 days from the time of infestation by counting all live cotton aphids on each plant.
For the purposes of this experiment, the compositions having lower rates of the insecticide were not analyzed. Percent control for all treatments was calculated using the rep average for the untreated plants. […] For all tests, measured efficacy (% Control) data were compared to calculated Colby values (Colby, S. R. 1967. Calculating Synergistic and Antagonistic Responses of Herbicide Combinations. Weeds 15:20-22) using a 2 sided T-test (Minitab). […] The formula used to calculate the Colby value for mixtures of Compound A and either herbicide or AMS was:
The formula was adapted for compositions including Compound A, herbicide and AMS as follows: […]

[4] = 0.0125 g insecticide/Ha with Durango 0.015 ml/ml + AMS 18 g/L
[5] = 0.0125 g insecticide/Ha with Durango 0.015 ml/ml
[6] = 0.0125 g insecticide/Ha with Durango Blank 0.015 ml/ml + AMS 18 g/L
[7] = 0.0125 g insecticide/Ha with Durango Blank 0.015 ml/ml
[8] = 0.05 g insecticide/Ha with Durango 0.015 ml/ml + AMS 18 g/L
[9] = 0.05 g insecticide/Ha with Durango 0.015 ml/ml
[10] = 0.05 g insecticide/Ha with Durango Blank 0.015 ml/ml + AMS 18 g/L
[11] = 0.05 g insecticide/Ha with Durango Blank 0.015 ml/ml
[12] = 0.2 g insecticide/Ha with Durango 0.015 ml/ml + AMS 18 g/L
[13] = 0.2 g insecticide/Ha with Durango 0.015 ml/ml
[14] = 0.2 g insecticide/Ha with Durango Blank 0.015 ml/ml + AMS 18 g/L
[15] = 0.2 g insecticide/Ha with Durango Blank 0.015 ml/ml

Which “% control AVE” value ([1]; 0.0125 g In./Ha + glufosinate 0.005 ml/ml) does the source give for `O=[N+]([O-])NC1=NCCN1Cc1ccc(Cl)nc1` [Imidacloprid, imidacloprid, reference compound] here?
The value was 66.5%.

What about the “Colby Predicted Values Ave” value ([1]; 0.0125 g In./Ha) of the same compound?
The value was 53.6.

What about the “% control AVE” value ([1]; 0.05 g In./Ha + glufosinate 0.005 ml/ml) of the same compound?
Its value is 51.2%.

What about the “Colby Predicted Values Ave” value ([1]; 0.05 g In./Ha) of the same compound?
Its value is 53.8.

And the “% control AVE” value ([1]; 0.2 g In./Ha + glufosinate 0.005 ml/ml)?
The value was 58.2%.

And the “Colby Predicted Values Ave” value ([1]; 0.2 g In./Ha)?
The value was 59.6.

And the “synergy assessment (measured vs predicted Colby values)” value ([1]; insecticide applied together with glufosinate)?
The value was “not different from the calculated additive values”.

What about the “synergy assessment (measured vs predicted Colby values)” value ([1]; insecticide with glufosinate and AMS) of the same compound?
Its value is “No evidence of synergy”.

And the “% Control (Negatives to zero) Ave” value [2, 4]?
Its value is 26.3%.

And the “% control Ave” value [2, 4]?
The value was 26.3%.

And the “Colbv predicted values Ave” value [2, 4]?
The value was 42.0.

What about the “% Control (Negatives to zero) Ave” value [2, 5] of the same compound?
Its value is 17.2%.

What about the “% control Ave” value [2, 5] of the same compound?
The value was −0.3%.

And the “Colbv predicted values Ave” value [2, 5]?
The value was 35.1.

What about the “% Control (Negatives to zero) Ave” value [2, 6] of the same compound?
The value was 24.7%.

And the “% control Ave” value [2, 6]?
Its value is −1.1%.

And the “Colbv predicted values Ave” value [2, 6]?
The value was 51.7.

And the “% Control (Negatives to zero) Ave” value [2, 7]?
Its value is 15.1%.

What about the “% control Ave” value [2, 7] of the same compound?
The value was −17.6%.

What about the “Colbv predicted values Ave” value [2, 7] of the same compound?
The value was 33.8.

And the “% control Ave” value ([2]; 0.0125 g insecticide/Ha, no herbicide, no AMS)?
Its value is 15.1%.

And the “CA Counts” value ([2]; 0.05 g insecticide/Ha with Durango 0.015 ml/ml + AMS 18 g/L, Rep 1-5, listed as lmidacloprid)?
The value was 49 and 50 and 71 and 64 and 54.

And the “% Control (Negatives to zero) Ave” value [2, 8]?
Its value is 37.3%.

And the “% control Ave” value [2, 8]?
The value was 37.3%.

And the “Colbv predicted values Ave” value [2, 8]?
Its value is 46.5.

And the “% Control (Negatives to zero) Ave” value [2, 9]?
The value was 25.4%.

What about the “% control Ave” value [2, 9] of the same compound?
Its value is 21.8%.

And the “Colbv predicted values Ave” value [2, 9]?
Its value is 38.2.

What about the “CA Counts” value ([2]; 0.05 g insecticide/Ha with Durango Blank 0.015 ml/ml + AMS 18 g/L, Rep 1-5, listed as lmidacloprid) of the same compound?
Its value is 82 and 81 and 108 and 73 and 95.

What about the “% Control (Negatives to zero) Ave” value [2, 10] of the same compound?
Its value is 11.2%.

And the “% control Ave” value [2, 10]?
Its value is 5.6%.

What about the “Colbv predicted values Ave” value [2, 10] of the same compound?
The value was 58.0.

And the “% Control (Negatives to zero) Ave” value [2, 11]?
Its value is 24.8%.

And the “% control Ave” value [2, 11]?
Its value is 20.1%.

And the “Colbv predicted values Ave” value [2, 11]?
Its value is 41.2.

And the “% control Ave” value ([2]; 0.05 g insecticide/Ha, no herbicide, no AMS)?
The value was 29.9%.

And the Colbv predicted values ([2]; 0.2 g insecticide/Ha with Durango 0.015 ml/ml + AMS 18 g/L, Rep 1-5, listed as lmidacloprid)?
The Colbv predicted values was 88.5 and 68.2 and 93.5 and 56.2 and 48.8.

And the “% Control (Negatives to zero) Ave” value [2, 12]?
Its value is 30.8%.

What about the “% control Ave” value [2, 12] of the same compound?
The value was 23.9%.

What about the “Colbv predicted values Ave” value [2, 12] of the same compound?
Its value is 71.0.

What about the Colbv predicted values ([2]; 0.2 g insecticide/Ha with Durango 0.015 ml/ml, Rep 1-5, expected additive control, listed as lmidacloprid) of the same compound?
Its Colbv predicted values is 74.5 and 68.6 and 84.8 and 56.2 and 48.8.

What about the “% Control (Negatives to zero) Ave” value [2, 13] of the same compound?
Its value is 45.5%.

And the “% control Ave” value [2, 13]?
Its value is 45.5%.

And the “Colbv predicted values Ave” value [2, 13]?
The value was 66.6.

And the Colbv predicted values ([2]; 0.2 g insecticide/Ha with Durango Blank 0.015 ml/ml + AMS 18 g/L, Rep 1-5, listed as lmidacloprid)?
Its Colbv predicted values is 96.1 and 88.7 and 75.9 and 68.4 and 48.8.

What about the “% Control (Negatives to zero) Ave” value [2, 14] of the same compound?
The value was 32.2%.

And the “% control Ave” value [2, 14]?
The value was 27.3%.

And the “Colbv predicted values Ave” value [2, 14]?
The value was 75.2.

What about the Colbv predicted values ([2]; 0.2 g insecticide/Ha with Durango Blank 0.015 ml/ml, Rep 1-5, listed as lmidacloprid) of the same compound?
The Colbv predicted values was 84.2 and 67.7 and 71.9 and 56.2 and 48.8.

What about the “% Control (Negatives to zero) Ave” value [2, 15] of the same compound?
The value was 55.3%.

And the “% control Ave” value [2, 15]?
Its value is 55.3%.

And the “Colbv predicted values Ave” value [2, 15]?
The value was 65.7.

And the “synergy assessment (measured vs predicted additive Colby values)” value ([2]; 0.2 g insecticide/Ha, co-applied with AMS and Durango)?
The value was “antagonism of imidacloprid activity”.

And the “CA Counts” value ([2]; 0.2 g insecticide/Ha, no herbicide, no AMS, Rep 1-5, live aphids per plant after 3 days, listed as lmidacloprid)?
The value was 30 and 51 and 44 and 32 and 38.

What about the “% control” value ([2]; 0.2 g insecticide/Ha, no herbicide, no AMS, Rep 1-5, vs rep average of untreated plants, listed as lmidacloprid) of the same compound?
Its value is 74.5% and 50.4% and 61.1% and 56.2% and 48.8%.

And the “% control Ave” value ([2]; 0.2 g insecticide/Ha, no herbicide, no AMS)?
The value was 58.2%.

And the “synergy assessment (measured vs predicted additive Colby values)” value ([2]; 0.2 g insecticide/Ha, only Durango mixed)?
Its value is “no effects”.

And the “synergy assessment (measured vs predicted additive Colby values)” value ([2]; 0.2 g insecticide/Ha, with Durango blank and AMS)?
The value was “antagonistic effect”.

What about the “synergy assessment (measured vs predicted additive Colby values)” value ([2]; 0.2 g insecticide/Ha, with Durango blank formulation) of the same compound?
Its value is “no significant difference between predicted and measured activity”.

And the “synergy assessment (measured control vs Colby values)” value ([3]; insecticide with AMS and herbicide (Glyphomax Plus))?
The value was “not improved compared to imidacloprid alone”.

What about the “synergy assessment (measured control vs Colby values)” value ([3]; insecticide with the herbicide (Glyphomax Plus)) of the same compound?
Its value is “not present”.
